Results published in patent US9101769B2, “High density epidural stimulation for facilitation of locomotion, posture, voluntary movement, and recovery of autonomic, sexual, vasomotor, and cognitive function after neurological injury” (The Regents of the University of California, priority 2011, dated 2015).

Legend:
stepping in animals = experiment: Pharmacological facilitation of stepping, optimal concentration of illustrative agents (Table 1); format: in vivo
Procedure: In certain embodiments, the methods described herein are used in conjunction with various pharmacological agents. […] These agents can be used in combination with epidural stimulation and physical therapy as described above.
In certain embodiments, the drugs are administered systemically, while in other embodiments, the drugs are administered locally, e.g., to particular regions of the spinal cord. Drugs that modulate the excitability of the spinal neuromotor networks are combinations of noradrenergic, serotonergic, GABAergic, and glycinergic receptor agonists and antagonists. Illustrative pharmacological agents include, but are not limited to agonists and antagonists to one or more combinations of serotonergic: 5-HT1A, 5-HT2A, 5-HT3, and 5HT7 receptors; to noradrenergic alpha1 and 2 receptors; and to dopaminergic D1 and D2 receptors (see, e.g., Table 1).

[1] = test system: rat with complete mid-thoracic spinal cord transection; experiment: Epidural stimulation coupled with drug therapy, locomotor behavior after complete spinal cord transection (FIG. 1); format: in vivo
Procedure: FIG. 1 summarizes recent experiments in rats that were carried out to assess the effectiveness of epidural stimulation coupled with combined drug therapy in the treatment of complete spinal cord injuries. The combination of quipazine and 8-0HDPAT with simultaneous epidural stimulation at spinal sites L2 and S1 results in robust coordinated stepping as early as one week after a complete spinal cord transection. Locomotor behavior observed from a typical rat before the injury and one week after a complete mid-thoracic spinal cord transection. The amount of body weight support provided to the rat is shown in red. One week post-injury, no spontaneous stepping activity is observed. […] Sol, soleus; TA, tibialis anterior; MTP, metatarsal-phalangeal.
FIG. 1 summarizes experiments in rats that were carried out to assess the effectiveness of epidural stimulation coupled with combined drug therapy in acute treatment of complete spinal cord injury.

[2] = one week after complete mid-thoracic spinal cord transection, drug administration without epidural stimulation
[3] = one week post-injury, epidural stimulation at L2 plus S1 with quipazine plus 8-OHDPAT together
[4] = one week post-injury, epidural stimulation simultaneously at L2 plus S1 in combination with either quipazine or 8-OHDPAT

CCCN(CCC)C1CCc2cccc(O)c2C1 (stereo not drawn) [8-OHDPAT]
Optimal Concentration (stepping in animals; route S.C.): 0.05 mg/kg | Locomotor behavior (stepping) [1, 2]: erratic movements | Locomotor behavior (stepping) [1, 3]: coordinated, plantar stepping with features resembling those observed pre-lesion | Locomotor behavior (stepping) [1, 4]: enables plantar stepping

Cc1nccn1CC1CCc2c(c3ccccc3n2C)C1=O (stereo not drawn) [Ondanesetron]
Optimal Concentration (stepping in animals; route I.P.): 3 mg/kg

c1ccc2nc(N3CCNCC3)ccc2c1 [Quipazine]
Locomotor behavior (stepping) [1, 2]: erratic movements | Locomotor behavior (stepping) [1, 3]: coordinated, plantar stepping with features resembling those observed pre-lesion | Locomotor behavior (stepping) [1, 4]: enables plantar stepping

CC1CCN(CC[C@H]2CCCN2S(=O)(=O)c2cccc(O)c2)CC1 [SB 269970]
Optimal Concentration (stepping in animals; route I.P.): 7 mg/kg

Oc1cc2c(c(Cl)c1O)CCNCC2c1ccccc1 (stereo not drawn) [SKF-81297]
Optimal Concentration (stepping in animals; route I.P.): 0.2 mg/kg

Cl.NC1CCN(c2cccc(Cl)n2)CC1 [SR 57227A]
Optimal Concentration (stepping in animals; route I.P.): 1.5 mg/kg

COc1ccccc1N1CCN(CCN(C(=O)C2CCCCC2)c2ccccn2)CC1 [Way 100.635]
Optimal Concentration (stepping in animals; route I.P.): 0.5 mg/kg
